This note sets out measurements from patent publication US20100120776A1, “Carbocysteine medical foods” (Hall Bioscience Corporation, priority 2008, published 2010).

Data set [1] in a line: Buccal availability study: pharmacokinetics and bioavailability of carbocysteine in dogs (buccal vs oral vs IV). The settings on record: beagle dogs; range across buccal and oral routes; no significant differences.
Procedure: (§1) A study was conducted in dogs to determine the pharmacokinetics and bioavailability of a buccal formulation of carbocysteine in comparison to oral and IV routes of administration.
(§2) The study was conducted according to the following methodology. A 400 mg dissolving tablet, a 400 mg oral tablet, and a 200 mg IV dose of carbocysteine were administered to each of five beagle dogs in a randomized crossover pattern. […] The dissolving tablet was administered to the animal by placing the tablet in the mouth until it dissolved. The oral tablet was administered by forcing the animal to swallow the tablet. […] Plasma concentrations were measured by precolumn derivatization of S-carboxymethylcysteine using o-phthaldialdehyde (OPA) and subsequent HPLC analysis. All data were analyzed using WinNonlin®, a tool for pharmacokinetic and pharmacodynamic analysis. The carbocysteine plasma data was fitted to a one-compartment model with first-order elimination. The pharmacokinetic parameters (t1/2, CL, Vd) generated from each route of administration were compared using analysis of variance (ANOVA) to detect statistically significant differences. A paired t-test was used to detect the differences in Cmax, Tmax, Ka, and F between buccal and oral routes of administration.
The nature of data set [2]: in vivo. The settings on record: beagle, dog, plasma.
Procedure: as §1, §2

As to `N[C@@H](CSCC(=O)O)C(=O)O` [carbocysteine, S-carboxymethyl-L-cysteine], in data set [1], the Ka is 0.028−0.034 min^−1. Moreover, in data set [2], the Vd fell in the range of 0.405 to 0.418 L/kg, the clearance was in the range of 4.52 to 4.64 mL/min/kg and the half-life was 1.02 to 1.07 h. Further, the time to peak (Tmax) in data set [2] (400 mg) lay in the range of 1.5 to 1.55 h.
